Test results from the supplement of paper PMC11451515.

Tested on: P12-Ichikawa
Assay: cell viability relative to DMSO control; higher = less cytotoxic
Settings: 48 h
Outline: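 Cells were incubated for 48 h at 37°C before CellTiter-Glo One luminescence was read. The cells were NOMO1 or SEM (500 cells/well) or P12-Ichikawa (1000 cells/well) leukemia cells, adapted for at least four passages in each medium and seeded in 1536-well plates (5 μl). Dosing used library compounds in DMSO applied by pin over 11 threefold points, 47 μM to 0.79 nM. Viability is the per-plate percentage of DMSO wells, with cell-free wells as background.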

[1] = HPLM + 10% dialyzed FBS, 0.000781 µM
[2] = HPLM + 10% dialyzed FBS, 0.00234 µM
[3] = HPLM + 10% dialyzed FBS, 0.00702 µM
[4] = HPLM + 10% dialyzed FBS, 0.0211 µM
[5] = HPLM + 10% dialyzed FBS, 0.0632 µM
[6] = HPLM + 10% dialyzed FBS, 0.19 µM
[7] = HPLM + 10% dialyzed FBS, 0.569 µM
[8] = HPLM + 10% dialyzed FBS, 1.71 µM
[9] = HPLM + 10% dialyzed FBS, 5.12 µM
[10] = HPLM + 10% dialyzed FBS, 15.4 µM
[11] = HPLM + 10% dialyzed FBS, 46.1 µM
[12] = RPMI 5 mM glucose + 10% FBS, 0.000781 µM
[13] = RPMI 5 mM glucose + 10% FBS, 0.00234 µM
[14] = RPMI 5 mM glucose + 10% FBS, 0.00702 µM
[15] = RPMI 5 mM glucose + 10% FBS, 0.0211 µM
[16] = RPMI 5 mM glucose + 10% FBS, 0.0632 µM
[17] = RPMI 5 mM glucose + 10% FBS, 0.19 µM
[18] = RPMI 5 mM glucose + 10% FBS, 0.569 µM
[19] = RPMI 5 mM glucose + 10% FBS, 1.71 µM
[20] = RPMI 5 mM glucose + 10% FBS, 5.12 µM
[21] = RPMI 5 mM glucose + 10% FBS, 15.4 µM
[22] = RPMI 5 mM glucose + 10% FBS, 46.1 µM
[23] = RPMI 5 mM glucose + 10% dialyzed FBS, 0.000781 µM
[24] = RPMI 5 mM glucose + 10% dialyzed FBS, 0.00234 µM
[25] = RPMI 5 mM glucose + 10% dialyzed FBS, 0.00702 µM
[26] = RPMI 5 mM glucose + 10% dialyzed FBS, 0.0211 µM
[27] = RPMI 5 mM glucose + 10% dialyzed FBS, 0.0632 µM
[28] = RPMI 5 mM glucose + 10% dialyzed FBS, 0.19 µM
[29] = RPMI 5 mM glucose + 10% dialyzed FBS, 0.569 µM
[30] = RPMI 5 mM glucose + 10% dialyzed FBS, 1.71 µM
[31] = RPMI 5 mM glucose + 10% dialyzed FBS, 5.12 µM
[32] = RPMI 5 mM glucose + 10% dialyzed FBS, 15.4 µM
[33] = RPMI 5 mM glucose + 10% dialyzed FBS, 46.1 µM

Row | SMILES | cell viability [1] [%] | cell viability [2] [%] | cell viability [3] [%] | cell viability [4] [%] | cell viability [5] [%] | cell viability [6] [%] | cell viability [7] [%] | cell viability [8] [%] | cell viability [9] [%] | cell viability [10] [%] | cell viability [11] [%] | cell viability [12] [%] | cell viability [13] [%] | cell viability [14] [%] | cell viability [15] [%] | cell viability [16] [%] | cell viability [17] [%] | cell viability [18] [%] | cell viability [19] [%] | cell viability [20] [%] | cell viability [21] [%] | cell viability [22] [%] | cell viability [23] [%] | cell viability [24] [%] | cell viability [25] [%] | cell viability [26] [%] | cell viability [27] [%] | cell viability [28] [%] | cell viability [29] [%] | cell viability [30] [%] | cell viability [31] [%] | cell viability [32] [%] | cell viability [33] [%]
1 | COC(=O)[C@H](Cc1ccccc1)NC(=O)[C@@H](N)CC(=O)O | 112 | 119 | 120 | 115 | 119 | 108 | 112 | 112 | 106 | 101 | 100 | 110 | 110 | 113 | 119 | 115 | 125 | 107 | 109 | 102 | 102 | 108 | 114 | 109 | 125 | 112 | 120 | 110 | 112 | 110 | 107 | 104 | 101
2 | N#Cc1cc(NC(=O)Nc2nnc(-c3ccncc3)s2)ccc1-c1cn[nH]c1 | 117 | 125 | 122 | 125 | 120 | 116 | 122 | 115 | 113 | 106 | 110 | 120 | 127 | 125 | 126 | 110 | 116 | 119 | 113 | 119 | 112 | 109 | 121 | 126 | 117 | 124 | 126 | 126 | 128 | 124 | 115 | 112 | 105
3 | CCC[C@H](Nc1nc(-c2ccc(NC(=O)NCC)c(OC)c2)ncc1C)c1cccnc1 | 114 | 115 | 117 | 120 | 22.3 | 11.4 | 9.4 | 8.46 | 7.94 | 7.62 | 6.68 | 125 | 137 | 123 | 136 | 21.8 | 12.7 | 11.7 | 8.52 | 8.89 | 7.34 | 6.34 | 120 | 125 | 122 | 124 | 29.6 | 18.1 | 17.2 | 10.4 | 11 | 10.1 | 7.87
4 | O=c1oc2cc(O)ccc2s1 | 114 | 115 | 111 | 115 | 116 | 117 | 115 | 110 | 108 | 106 | 104 | 115 | 131 | 95.8 | 116 | 117 | 116 | 117 | 107 | 108 | 107 | 96.8 | 104 | 126 | 109 | 112 | 111 | 116 | 114 | 104 | 100 | 103 | 85.9
5 | CCc1nc(N)nc(N)c1-c1ccc(Cl)cc1 | 93.6 | 97.3 | 89.5 | 98.6 | 95.5 | 89.1 | 76.1 | 56.5 | 46.2 | 33.8 | 21.9 | 91.2 | 91.9 | 88.6 | 93.4 | 107 | 97 | 98.4 | 90 | 87.3 | 68.4 | 57.1 | 82.2 | 91.3 | 89 | 96.6 | 95.3 | 90.1 | 84.3 | 85.2 | 86.5 | 48.3 | 24.4
6 | CN(C[C@@H]1COCCO1)[S+]([O-])(=O)NC2=CC3=C(C=C2)\C=C/C4=C(C=C(C=N4)C5=C[N](C)N=C5)C3=O | 93.4 | 99.6 | 94.1 | 101 | 93.7 | 90.1 | 71.8 | 67.4 | 54.7 | 49.8 | 52.4 | 95.6 | 92.7 | 103 | 95.2 | 102 | 96.1 | 76.6 | 53.5 | 48.8 | 42.2 | 50 | 94 | 97.1 | 88.7 | 91.2 | 105 | 88.9 | 75.3 | 53.6 | 43.3 | 37.6 | 41.5
7 | CCCCN1CCC(CNC(=O)c2c3n(c4ccccc24)CCCO3)CC1 | 100 | 104 | 109 | 112 | 115 | 109 | 116 | 110 | 107 | 95 | 68.9 | 107 | 105 | 109 | 112 | 118 | 101 | 112 | 114 | 112 | 90.1 | 68 | 92.8 | 107 | 106 | 98.5 | 113 | 105 | 112 | 112 | 109 | 94.7 | 78.5
8 | C[C@@H]1CC[C@@]2(CC[C@]3(C)\C(=C/C[C@@H]4[C@@]5(C)C[C@@H](O)[C@H](O)[C@@](C)(CO)[C@@H]5CC[C@@]34C)[C@@H]2[C@H]1C)C(O)=O | 109 | 113 | 108 | 122 | 121 | 120 | 116 | 116 | 122 | 121 | 112 | 116 | 123 | 113 | 116 | 119 | 121 | 126 | 131 | 123 | 119 | 110 | 109 | 113 | 114 | 109 | 121 | 118 | 128 | 121 | 125 | 110 | 123
9 | CCCC[S+](=N)([O-])CCC(N)C(=O)O (centres undefined) | 113 | 124 | 127 | 126 | 132 | 137 | 135 | 139 | 131 | 128 | 6.85 | – | – | – | – | – | – | – | – | – | – | – | – | – | – | – | – | – | – | – | – | – | –
10 | COc1cc(N2CCC(N3CCN(C)CC3)CC2)ccc1Nc1ncc(Cl)c(Nc2ccccc2[S+](=O)([O-])C(C)C)n1 | 106 | 101 | 129 | 140 | 142 | 136 | 144 | 104 | 23.6 | 12.2 | 31.5 | 83.4 | 87.1 | 138 | 149 | 159 | 151 | 147 | 104 | 33.7 | 37.4 | 40.3 | 99.3 | 88.2 | 146 | 161 | 177 | 171 | 161 | 150 | 53.3 | 58 | 65.5
11 | COCC(=O)NC/C=C/c1ccc2ncnc(Nc3ccc(Oc4ccc(C)nc4)c(C)c3)c2c1 | 99.6 | 99.3 | 101 | 107 | 101 | 92.3 | 103 | 98.6 | 95.7 | 93.1 | 64.5 | 91.7 | 112 | 106 | 105 | 105 | 100 | 91.5 | 101 | 81.6 | 77.2 | 43.1 | 102 | 109 | 115 | 113 | 105 | 99 | 97.9 | 101 | 88 | 79.7 | 51.5
12 | CC1(C)CCC(C)(C)c2cc(NC(=O)c3ccc(C(=O)O)cc3)ccc21 | 73.7 | 116 | 101 | 102 | 107 | 106 | 105 | 104 | 106 | 101 | 96.4 | 102 | 103 | 93.9 | 96.2 | 103 | 97.8 | 104 | 109 | 101 | 98.9 | 88.5 | 96.2 | 104 | 98.4 | 108 | 110 | 105 | 116 | 108 | 107 | 102 | 79.6
13 | Nc1nccc(-c2ccc3noc(-c4ccc(Cl)cc4)c3c2)n1 | 124 | 124 | 131 | 129 | 120 | 124 | 128 | 120 | 122 | 115 | 118 | – | – | – | – | – | – | – | – | – | – | – | 116 | 119 | 122 | 123 | 117 | 115 | 110 | 123 | 115 | 105 | 110
14 | Clc1ccc(C(c2ccc(Cl)cc2)[n+]2ccn(CC(OCc3ccc(Cl)cc3Cl)c3ccc(Cl)cc3Cl)c2)cc1 (centres undefined) | 115 | 112 | 109 | 104 | 113 | 117 | 110 | 98.1 | 102 | 70.6 | 47.1 | 129 | 113 | 115 | 110 | 115 | 115 | 113 | 100 | 105 | 70.2 | 21 | – | – | – | – | – | – | – | – | – | – | –
15 | CO[C@H]1C[C@@H]2CC[C@@H](C)[C@@](O)(O2)C(=O)C(=O)N2CCCC[C@H]2C(=O)O[C@H]([C@@H](C)C[C@@H]2CC[C@@H](O)[C@H](OC)C2)CC(=O)[C@H](C)/C=C(\C)[C@@H](O)[C@@H](OC)C(=O)[C@H](C)C[C@H](C)/C=C/C=C/C=C/1C | 118 | 127 | 122 | 125 | 124 | 116 | 121 | 124 | 113 | 112 | 91.8 | – | – | – | – | – | – | – | – | – | – | – | – | – | – | – | – | – | – | – | – | – | –
